# Measured values published in patent US8741889B2, “Method of treating non-small cell lung cancer and colon cancer with gamma-secretase inhibitor” (Hoffmann-La Roche Inc, priority 2008, dated 2014).
# Tests used:
# [1] = system: A549 cells; experiment: FACS cell cycle analysis in A549 cells; type: cell-based, human
# Experimental: The A549 cell line was obtained from the American Tissue Culture Collection (ATCC), Manassas, Va. and maintained in Ham's media supplemented with 10% heat-inactivated Fetal Bovine Serum (HI-FBS; GIBCO/BRL, Gaithersburg, Md.) and 2 mM L-glutamine (GIBCO/BRL). 1×10^6 A549 cells were seeded in […] plates for FACS analysis and 3×10^5 cells per well were seeded in 6-well plate for Western blot analysis. Cells were allowed to attach for 24 hours and then treated with compound (1) compound at the following concentrations: 0.1, 0.25, 0.5, 1, 2.5 and 5 μM. Cells were incubated for either 72 or 120 hours and collected for FACS analysis.
# Cells were incubated with compound (1) for 72 or 120 hours, harvested by scraping, washed twice in phosphate-buffered saline (PBS), spun down at 1.5×10^3 rpm, and fixed at −20° C. overnight with 70% ethanol. Cells were then analyzed using MPM2-FITC and propidium iodide (PI) double staining (Becton Dickinson, San Jose, Calif.). Briefly, cells were washed twice with cold PBS containing 0.05% Tween-20 (PBST), incubated for 2 hours with anti-Phospho Ser/Thr MPM2 antibody (#05-368, Upstate/Millipore, Bullerica, Mass.), washed with PBST again, incubated in the dark with secondary IgG-FITC antibody (#AP308F, Chemicon, Temecula, Calif.), washed with PBST and incubated with PI/RNase solution (Becton Dickinson, San Jose, Calif.) for additional 30 min at 37° C.
# Samples were analyzed on a FACScan flow cytometer (Becton Dickinson, San Jose, Calif.) equipped with a 488 nm argon ion laser. Green fluorescein isothiocyanate (FITC) fluorescence was collected with a 530/30 nm bandpass filter using logarithmic amplification and orange emission from propidium iodide (PI) was filtered through a 585/42 nm bandpass filter using linear amplification. A minimum of 20,000 events was collected on each sample. Cell cycle analysis of DNA histograms was performed with FlowJo software (Tree Star Inc., Ashland, Oreg.).
# [2] = system: BxPC3 pancreatic xenografts; experiment: Antitumor efficacy in BxPC3 pancreatic xenografts in SCID-beige mice; type: in vivo
# Experimental: Female (athymic nu/nu) nude mice were obtained from Charles River Laboratories (Wilmington, Mass.), while female SCID-beige mice were purchased from Taconic (Germantown, N.Y.). Mice were used when they were approximately 8-12 weeks old (nudes) or 8-10 weeks old (SCID-beige), and weighed approximately 23-25 grams. The health of all animals was determined daily by gross observation of experimental animals and by the analyses of blood samples of sentinel animals that were housed on the shared shelf racks. All animals were allowed to acclimate and recover from any shipping related stress for a minimum of 72 hours prior to experimental use. Autoclaved water and irradiated food [5058-ms Pico chow (mouse) Purina, Richmond, Ind.] were provided ad libitum, and the animals were maintained on a 12 hour light and dark cycle. Cages, bedding and water bottles were autoclaved before use and were changed weekly. MiaPaca2, AsPC1 and BxPC3 human pancreatic carcinoma cells were purchased from ATCC (Manassas, Va.). BxPC3 and AsPC1 cells were grown in RPMI medium and MiaPaca2 cells were grown in Dulbecco's Modified Essential Medium (DMEM). All culture media were supplemented with 10% (v/v) FBS and 1% (v/v) […]. […] SCID-biege mice were implanted se with 5×10^6 BxPC3 cells in a 1:1 mixture of matrigel:PBS in a volume of 0.2 ml per mouse in the right hind flank on May 22, 2007. […] Formulated compound and vehicle were stored at 4° C. and prepared weekly. The suspension was mixed vigorously prior to administration. Gemcitabine (Gemzar®, Eli Lilly and Company, Indianapolis, Ind., USA) was reconstituted with sterile saline to yield a stock solution of 38 mg/ml for the entire 3-4 week study. […] Nude mice implanted with MiaPaca2 or AsPC1 xenografts were randomized on day 17 and day 9 post cell implant, respectively. SCID-beige mice bearing BxPC3 xenografts were randomized 8 days post implant. […] Treatment for the MiaPaca2 study began on Feb. […] For the MiaPaca2 and AsPC1 studies, qd Compound (1) suspension or q3d gemcitabine treatment ended on day 37 post tumor cell implant, whereas for the BxPC3 study, qd Compound (1) suspension or q3d gemcitabine treatment ended on day 35 post tumor cell implant. Efficacy data was graphically represented as the mean tumor volume+standard error of the mean (SEM). Tumor volumes of treated groups were presented as percentages of tumor volumes of the control groups (% T/C), using the formula: 100×((T−T0)/(C−C0)), where T represented mean tumor volume of a treated group on a specific day during the experiment, T0 represented mean tumor volume of the same treated group on the first day of treatment; C represented mean tumor volume of a control group on the specific day during the experiment, and C0 represented mean tumor volume of the same treated group on the first day of treatment. Tumor volume (in cubic millimeters) was calculated using the ellipsoid formula: (D×(d2))/2 where ‘D’ represents the large diameter of the tumor, and ‘d’ represents the small diameter. In some cases, tumor regression and/or percent change in tumor volume was calculated using the formula: ((T−T0)/T0)×100 where ‘T’ represents mean tumor volume of the treated group at a particular day, and ‘T0’ represents mean tumor volume of the same treated group at initiation of treatment. Statistical analysis was determined by the rank sum test and One Way Anova and a post-hoc Bonferroni t-test (SigmaStat, version 2.0, Jandel Scientific, San Francisco, Calif.). Differences between groups were considered to be significant when the probability value (p) was ≦0.05.
structure (smiles),measurement,setting,value
"CC(C)(C(=O)NCC(F)(F)C(F)(F)F)C(=O)N[C@@H]1C(=O)Nc2ccccc2-c2ccccc21 [Compound (1), 2,2-Dimethyl-N—((S)-6-oxo-6,7-dihydro-5H-dibenzo[b,d]azepin-7-yl)-N′-(2,2,3,3,3-pentafluoro-propyl)-malonamide]","G1, %","[1]; 0.10 μM, 72 hrs",63.1%
same,"G2/M, %","[1]; 0.10 μM, 72 hrs",23.3%
same,"subG1, %","[1]; 0.10 μM, 72 hrs",6.5%
same,"G1, %","[1]; 0.10 μM, 120 hrs",59.0%
same,"G2/M, %","[1]; 0.10 μM, 120 hrs",24.1%
same,"subG1, %","[1]; 0.10 μM, 120 hrs",6.8%
same,"G1, %","[1]; 0.25 μM, 72 hrs",64.8%
same,"G2/M, %","[1]; 0.25 μM, 72 hrs",20.3%
same,"subG1, %","[1]; 0.25 μM, 72 hrs",5.9%
same,"G1, %","[1]; 0.25 μM, 120 hrs",61.1%
same,"G2/M, %","[1]; 0.25 μM, 120 hrs",23.8%
same,"subG1, %","[1]; 0.25 μM, 120 hrs",6.7%
same,"G1, %","[1]; 0.50 μM, 72 hrs",66.6%
same,"G2/M, %","[1]; 0.50 μM, 72 hrs",19.4%
same,"subG1, %","[1]; 0.50 μM, 72 hrs",4.3%
same,"G1, %","[1]; 0.50 μM, 120 hrs",58.6%
same,"G2/M, %","[1]; 0.50 μM, 120 hrs",23.3%
same,"subG1, %","[1]; 0.50 μM, 120 hrs",9.6%
same,"G1, %","[1]; 1.0 μM, 72 hrs",64%
same,"G2/M, %","[1]; 1.0 μM, 72 hrs",21.5%
same,"subG1, %","[1]; 1.0 μM, 72 hrs",6.6%
same,"G1, %","[1]; 1.0 μM, 120 hrs",60.9%
same,"G2/M, %","[1]; 1.0 μM, 120 hrs",19.8%
same,"subG1, %","[1]; 1.0 μM, 120 hrs",8.0%
same,"G1, %","[1]; 5.0 μM, 72 hrs",64.9%
same,"G2/M, %","[1]; 5.0 μM, 72 hrs",20%
same,"subG1, %","[1]; 5.0 μM, 72 hrs",8.4%
same,"G1, %","[1]; 5.0 μM, 120 hrs",58.7%
same,"G2/M, %","[1]; 5.0 μM, 120 hrs",18.3%
same,"subG1, %","[1]; 5.0 μM, 120 hrs",13.7%
same,% TGI,"[2]; 3 mg/kg po qd, day 35",72%
same,% TGI,"[2]; 10 mg/kg po qd, day 35",82%
same,% TGI,"[2]; 10 mg/kg po, 3+/4− schedule",56%
same,% TGI,"[2]; 20 mg/kg po, 7+/7− schedule",63%
same,% TGI,"[2]; 23 mg/kg po, 3+/4− schedule",64%
same,% TGI,"[2]; 30 mg/kg po, 3+/4− schedule",50%
